# Bridge positions count the residues as written; N and C are the ends. Square brackets hold non-standard residues; d marks the D form. Ends that are not written are not given here. * marks the point of attachment. Biotin = O=C1N[C@H]2[C@H](CS[C@H]2CCCCC(=O)*)N1
# T1: FBLN4 (Mus musculus, UniProt Q9WVJ9)
# T1 construct: proteins extracted from 4T1 cells were incubated with beads pre-loaded with BLMP6; endogenous in cells; host or cells: 4T1 mouse breast cancer cells
# T1 sequence (Q9WVJ9 28-443): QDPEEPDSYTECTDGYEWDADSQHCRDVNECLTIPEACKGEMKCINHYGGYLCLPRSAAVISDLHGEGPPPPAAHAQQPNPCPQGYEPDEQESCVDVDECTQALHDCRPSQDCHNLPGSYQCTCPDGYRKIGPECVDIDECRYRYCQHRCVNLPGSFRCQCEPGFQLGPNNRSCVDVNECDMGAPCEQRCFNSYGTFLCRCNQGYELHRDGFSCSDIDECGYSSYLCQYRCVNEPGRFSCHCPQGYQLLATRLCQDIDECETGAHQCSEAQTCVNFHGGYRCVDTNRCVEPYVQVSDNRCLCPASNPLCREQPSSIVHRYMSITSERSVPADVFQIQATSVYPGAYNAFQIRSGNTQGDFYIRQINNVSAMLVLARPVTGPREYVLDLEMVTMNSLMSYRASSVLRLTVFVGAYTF
# T2: Fibulin-4 protein (Abcam, 182808) (UniProt O95967 24-443)
# T2 chain: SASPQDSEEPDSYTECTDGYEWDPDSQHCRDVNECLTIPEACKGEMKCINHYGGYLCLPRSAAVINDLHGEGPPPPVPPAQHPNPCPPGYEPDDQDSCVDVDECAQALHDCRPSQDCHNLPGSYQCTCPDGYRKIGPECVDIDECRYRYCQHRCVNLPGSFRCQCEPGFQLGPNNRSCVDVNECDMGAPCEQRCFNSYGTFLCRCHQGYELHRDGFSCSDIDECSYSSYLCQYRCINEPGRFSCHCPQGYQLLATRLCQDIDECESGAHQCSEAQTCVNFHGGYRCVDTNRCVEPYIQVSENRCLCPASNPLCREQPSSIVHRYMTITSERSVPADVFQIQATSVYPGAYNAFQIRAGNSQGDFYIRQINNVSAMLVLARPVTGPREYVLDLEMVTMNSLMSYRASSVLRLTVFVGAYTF
# B1: MMAE-BLMP6 (peptide)
# peptide: [dC][dR][dA]G[dV]G[dR]G[dC]
# modifications: disulfide 1-9 (inferred); also: MMAE coupled via PAB-Cit-Val-PEG4 linker, site not given here
# Columns and labels:
# FBLN4 = target: T1, FBLN4; test: Affinity purification of FBLN4 from 4T1 cell extract on BLMP6-loaded beads; assay type: binding; details: biotinylated BLMP6 immobilized on streptavidin-coated beads; not isolated on control beads
# Method: To test if BLMP6 binds to FBLN4 in vitro, we used Octet to perform the biolayer interferometry assay. […] To confirm BLMP6 binding to FBLN4 expressed by cancer cells, proteins extracted from 4T1 cells were incubated with beads pre-loaded with BLMP6. […] To confirm BLMP6 binding to FBLN4 in a genetic model, we used CRISPR/Cas9 to make 4T1 FBLN4 knockout (KO) cells confirmed by RT-PCR (Figure 1E). FBLN4-KO and control 4T1-luc cells were grafted into mice, and once metastases were detected by bioluminescence, phage displaying BLMP6 ([6]) was injected. After 30 min of circulation, heart perfusion was performed, and lungs were recovered. Section histopathology confirmed metastasis formation in all lungs, indicating FBLN4 expression is not required for cancer cell colonization and growth at the secondary site.
# B16F10 lung metastases = test: B16F10 experimental lung metastasis model, treatment; assay type: in vivo, mouse; details: B16F10-luc iv
# Source text: (§1) Animal studies were approved by the IACUC of UTHealth. Spontaneous cancer progression to metastases was modeled by injecting 2×10^4 4T1 cells into the mammary fat pad of 10-week-old female Balb/c mice (Jackson Laboratory) with a 31-gauge needle. Metastatic progression was monitored with bioluminescence imaging. For lung metastasis modeling, Balb/c mice were tail vein-injected with 2.5×10^5 4T1-luc WT or FBLN4-KO cells, C57BL/6 mice (Jackson) were tail vein-injected with 1×10^5 B16F10 cells, and athymic Nude-Foxn1nu (Envigo) mice were tail vein-injected with 1×10^5 MDA-MB-231-luc-GFP cells. For phage-peptide homing analysis, mice were injected into the tail vein with 5×10^10 transducing units (TU) of phage-BLMP6 ([6]). After 30 min of circulation, heart perfusion with 10 ml of PBS was performed and lung sections were processed. For PET imaging studies, mice were intravenously injected with 7.4 MBq (200 μCi, 5 nmol) of ^68Ga-labeled DOTA-BLMP6 and imaged 45–60 min later using Albira small-animal PET/CT scanner (Bruker After imaging, the mice were euthanized, the tissues of interest were harvested and probe homing was analyzed using a Cobra II automated gamma counter (Packard) and expressed as percentage of the injected dose per gram tissue (%ID/g tissue).
# To test MMAE-BLMP6 efficacy for cancer suppression, we first used the B16F10 experimental lung metastasis model. […]
# Stability in mouse serum = assay type: in vitro ADME; details: Figure S4B-C
# Source text: To test MMAE-BLMP6 efficacy in vivo, we first analyzed its stability in mouse serum. […] We then used the experimental lung metastasis model of B16F10 cells injected intravenously to produce lung metastases.
# [1] = test system: MDA-MB-231-luc-GFP lung metastases; test: MDA-MB-231 experimental lung metastasis model, treatment; assay type: in vivo, mouse
# Source text: as §1
# To test MMAE-BLMP6 efficacy for cancer suppression, we first used the B16F10 experimental lung metastasis model. Three MMAE-BLMP6 (50 ug) or PBS subcutaneous injections were done over days 1–6 and four additional MMAE-BLMP6 (100 ug) or PBS subcutaneous injections on days 8–18 after iv injection of B16F10-luc cells (Figure 5A). […] While vehicle-treated mice began dying on day 15, with most animals perishing by day 21, MMAE-BLMP6-treated mice only started showing metastases on day 15 by IVIS and survived 2 to 3 days longer (Figure 5A). In the MDA-MB-231-luc-GFP experimental lung metastasis model, a similar trend was observed (Figure 5C).
# [2] = test system: HEK293 cells ectopically expressing FBLN4; test: Fluorescent peptide binding to HEK293 cells; assay type: cell-based; details: Figure S2A
# [3] = test system: invasive and metastatic cancer cells in tissue sections; test: Overlay assay on paraffin tissue sections
# Method: Octet binding assays were performed with an Octet RED96 system (ForteBio) as described ([13]). Briefly, the peptides were loaded onto streptavidin resin-coated biosensors (Sartorius Lab, 18–5019) at a concentration of 20 ug/ml in 1x kinetic buffer for 5 min. […] For all experiments, Ka (1/Ms) and Kd (1/s) were measured. FortéBio’s data analysis software was employed to fit the binding curve to a 1:1 binding model in order to extract association and dissociation rates. Overlay assay on tissues was performed by incubating AZDye555-BLMP6 (12.5 ug/ml) for 2 hr and washing with PBS before fixation with 4% paraformaldehyde.
# [4] = target: FBLN4 of mouse 4T1 cancer cells (mouse (endogenous in 4T1)) (UniProt Q9WVJ9)
# [5] = target: T2, Fibulin-4 protein (Abcam, 182808); test: BLI
molecule,measurement,setting,value
"CRAGVGRGC (disulfide 1-9 (inferred)) [BLMP6, cyclic peptide … that homes to disseminating tumor cells]","FBLN4 isolated from 4T1 cell proteins on peptide-loaded beads, immunoblotting with anti-FBLN4 antibodies",FBLN4,the predicted 49 kDa band was observed
"MMAE-BLMP6: monomethyl auristatin E coupled to all-D BLMP6 via PEG4, valine-citrulline and PAB linker ([dC][dR][dA]G[dV]G[dR]G[dC]; disulfide 1-9 (inferred); also: MMAE coupled via PAB-Cit-Val-PEG4 linker, site not given here)","metastasis burden, bioluminescence analysis by IVIS","B16F10 lung metastases; sc 50 ug x3 over days 1-6 and 100 ug x4 on days 8-18, versus PBS, at day 5",metastasis suppression
same,survival longer than vehicle-treated mice,"B16F10 lung metastases; sc 50 ug x3 then 100 ug x4, vehicle mice began dying on day 15, most by day 21",2 to 3 days
same,time after which a secondary degradation peak appeared in mouse serum,Stability in mouse serum,6 h
same,"stability in mouse serum, peaks observed",Stability in mouse serum; after 1 hr,single MMAE-BLMP6 peak was observed
same,"survival beyond controls, one treated mouse","[1]; MDA-MB-231-luc-GFP iv, one of the treated mice",9 days
same,"metastasis growth, bioluminescence imaging","[1]; MDA-MB-231-luc-GFP iv, sc treatment versus PBS, days 12 and 21",suppressed metastasis growth
same,"tolerability, clinical observation","[1]; athymic mice, 50 to 100 μg sc, at day 15, treatment interrupted 6 days, re-initiated at 15 μg daily",signs of sickness
AZDye555-BLMP6 (AZDye555-CRAGVGRGC; bridge 1-9 (inferred)),binding to HEK293 cells ectopically expressing FBLN4,[2],confirmed to bind
same,binding to non-transfected control HEK293 cells,[2],not to non-transfected control cells
same,binding to lung sections from mice grafted with 4T1 cells,"[3]; 12.5 ug/ml overlay, 2 hr, paraffin sections",selectively bound to metastatic lesions but not to normal lung
same,binding to lung sections from mice with MDA-MB-231 experimental lung metastases,"[3]; 12.5 ug/ml overlay, paraffin sections, N-cadherin IF",binds to a subpopulation of tumor cells expressing N-cadherin
same,binding across human breast cancer tissue array cores,"[3]; human FFPE tissue arrays: 50 primary, 40 metastatic, 10 adjacent control biopsies",largely concordant with N-cadherin expression
B1,"IC50 of cell viability (CellTiter-Blue), 4T1 cells, 24 h after adding MMAE-BLMP6",[4],500 nM
"Biotin-CRAGVGRGC (disulfide 1-9 (inferred)) [biotinylated BLMP6, cyclic peptide CRAGVGRGC]",koff,[5],3.18e-07 s⁻¹

# — article doi:10.1101/2025.06.18.657655, “Fibulin-4 is highly expressed in metastatic breast cancer and can serve as a target of peptide-based imaging probes and experimental therapeutics” (bioRxiv, 2025)
